# Test results: PMC8113538, “Acute toxicity analysis of an inhibitor of BCL2, Disarib, in rats” (Scientific Reports, 2021)
# Columns and labels:
# [1] = Disarib solubility assay (shake flask method, HPLC); format: physicochemical; conditions: Disarib 100 µM
# Procedure: The solubility of Disarib was determined by the shake flask method, as described earlier. Briefly, Disarib (100 μM) was dissolved in various solvents such as alcohol (40, 60, 80 and 100%), acid (0.1, 0.3 and 0.6 N HCl) and DMSO (25, 50, 75 and 100%). Further, solubility of Disarib was also tested in a combination of alcohol (40, 60%) and acid (0.1, 0.3 N). The suspension was vortexed 2–3 min and kept in a water bath for 5 min, as described before[25],[26],[39]. In each case, the samples were diluted in acetonitrile and analyzed using HPLC in acetonitrile:water gradient[27],[40]. The area under the curve (AUC) was determined by using the software LabSolutions, Shimadzu (Japan). The values used for plotting in GraphPad Prism (ver 5.1) softwarewere the mean of three independent experiments. The samples were analyzed by HPLC using the Shimadzu HPLC system. LC was carried out on the C18 analytical column. The mobile phase was the gradient of acetonitrile and water. Disarib specific peaks were detected at 232 nm. The injection volume was 20 μl, and the flow rate was 1.2 ml/min. The standard curves were constructed by plotting the peak area vs. concentration of Disarib[40].
# Wistar rats [2] = assay: Histology (H&E) of organs; format: in vivo, Wistar rats (Rattus norvegicus); conditions: 2000 mg/kg oral, day 14, H&E
# Procedure: At the end of the experimental period (14 days), two animals from each group were sacrificed following CO2 asphyxiation. Liver, kidney, intestine, spleen, lungs, and heart were collected, fixed in 4% paraformaldehyde (PFA) and processed for histology, as described before[44]–[46]. For histological studies, tissues from rats treated with the highest dose (2000 mg/kg) and the vehicle control group were selected. Paraffin blocks were prepared and sections were taken using a rotary microtome (Leica Biosystems, Buffalo Grove, IL, USA) with a thickness of 5 µm. Following deparaffination, sections were stained with hematoxylin and eosin (H&E), mounted in DPX, and imaged under a bright-field microscope (Carl Zeiss AxioVision, Oberkochen, Germany).
# [3] = Pharmacokinetics in serum of Wistar rats after oral administration (HPLC); format: in vivo, Wistar rats (Rattus norvegicus); conditions: 50 mg/kg b. wt oral
# Procedure: Wistar rats (Rattus norvegicus) were administered with 50 mg/kg Disarib orally, and blood was collected by heart-puncture method following sacrifice at different time points (15 min, 30 min, 1, 2, 4, 6, 8, 10, 12, 24, 48 and 72 h) following treatment. Blood was allowed to clot, and serum was separated by centrifugation (900×g, 10 min) and deproteinized by adding acetonitrile. Samples for standard calibration curve were prepared by spiking 100 μM Disarib in rat plasma. The supernatant was loaded onto a C18 column, and HPLC analysis was performed in acetonitrile:water gradient, as described before[23],[38] (Shimadzu, Kyoto, Japan). Disarib specific peak were acquired at 232 nm wavelength. At least two mice were sacrificed at each time point for the study. Pharmacokinetic parameters were analysed by using LabSolutions software (Shimadzu, Japan), and the values obtained were plotted with GraphPad Prism (ver5.1) software, where C is predicted concentration and t is time. Data was analysed using nonlinear regression analysis. Maximum drug plasma concentration (Cmax) and Time to reach Cmax was determind by area under the curve versus time curve. Clearance (Cl) and steady state volume of distribution (Vss) were calculated respectively by rate of drug elimination and amount of drug in the body at equilibrium condition vs steady state drug concentration in plasma.
# The samples were analyzed by HPLC using the Shimadzu HPLC system. LC was carried out on the C18 analytical column. The mobile phase was the gradient of acetonitrile and water. Disarib specific peaks were detected at 232 nm. The injection volume was 20 μl, and the flow rate was 1.2 ml/min. The standard curves were constructed by plotting the peak area vs. concentration of Disarib[40].
# Wistar rats [4] = assay: Serum biochemistry (liver and kidney function); format: in vivo, Wistar rats (Rattus norvegicus); conditions: serum day 14
# Procedure: After 14 days of Disarib administration, two animals were sacrificed using CO2 asphyxiation from each group, and blood was collected in tubes without using anticoagulant and centrifuged (900×g, 10 min). Serum glutamic pyruvic transaminase (SGPT), serum glutamic oxaloacetic transaminase (SGOT), alkaline phosphatase (ALP), albumin, total protein, bilirubin, blood urea nitrogen (BUN), creatinine, uric acid, and phosphorous were analyzed as described earlier[28],[29]. Analysis of serum samples was performed at Rohana Veterinary Diagnostic Lab, Bangalore, India.
# [5] = Stability of Disarib in PBS (HPLC); format: physicochemical; conditions: 37 °C; 0, 2, 4, 6 h; HPLC peak
# Procedure: The stability of Disarib (100 μM) was investigated in phosphate-buffered saline (PBS) and in plasma. The blood was collected from rats by heart puncture, and plasma was separated for the study. After the addition of Disarib into plasma or PBS, the mixture was incubated at 37 °C in water bath[25],[26]. The samples were then collected at different time points, 0, 2, 4, and 6 h, mixed manually with acetonitrile (1:1), and analyzed on HPLC[27],[40]. The values plotted represent the mean of three independent experiments. The samples were analyzed by HPLC using the Shimadzu HPLC system. LC was carried out on the C18 analytical column. The mobile phase was the gradient of acetonitrile and water. Disarib specific peaks were detected at 232 nm. The injection volume was 20 μl, and the flow rate was 1.2 ml/min. The standard curves were constructed by plotting the peak area vs. concentration of Disarib[40].
# mice = conditions: cited from earlier work
# BCL2 = tested on: BCL2; set-up: method as in PMID 28223017, PMID 27693384; conditions: cited from earlier work
# bone marrow cells = assay: Micronucleus assay for genotoxicity; format: in vivo; conditions: Wistar rats, 50 mg/kg b. wt. oral; 24, 48 and 72 h post-treatment
# Procedure: To evaluate genotoxicity caused by Disarib at the effective dose, micronucleus assay was performed[32]–[34]. Wistar rats (n = 6) were orally administered with Disarib (50 mg/kg), and bone marrow cells were collected after 24, 48, and 72 h post-treatment. Bone marrow cells were flushed out in 1X PBS containing EDTA, centrifuged, fixed (2% PFA) and stained with DAPI. Cells exposed to γ-irradiation (4 Gy) served as a positive control for the assay and were imaged using a fluorescence microscope (Nikon, Tokyo, Japan). At least 500 cells were counted from each animal for each time point, and data was plotted and represented as a bar diagram.
# [6] = Wistar rats, 100, 1000, 2000 mg/kg oral
smiles,measurement,setting,value
O=C1Nc2ccccc2/C1=C/c1c(-c2ccc(Br)cc2)nc2sc(Cc3ccc(Cl)cc3)nn12 [Disarib],solubility in HCl,"[1]; 0.1, 0.3 and 0.6 N HCl tested",soluble only in higher acidic conditions such as 0.3 N HCl
same,DMSO concentration giving complete dissolution,[1]; HPLC at 232 nm,> 75%
same,solubility in alcohol in combination with HCl,"[1]; alcohol 40, 60% with HCl",soluble in 40% alcohol and 0.3 and 0.6 N HCl
same,intestine histology,Wistar rats [2],Normal structure and organization
same,kidney histology,Wistar rats [2],No glomerular dilation and tubular necrosis
same,liver histology,Wistar rats [2],"no cellular change in lobular liver texture, hepatocytes and sinusoidal spaces"
same,lungs and heart histology,Wistar rats [2],did not show difference in the structure of alveoli and cardiac muscles
same,spleen histology,Wistar rats [2],no difference in spleen architecture
same,maximum concentration (Cmax) in serum,[3],~ 18 μg/ml
same,steady state volume of distribution (Vss),[3]; estimated,4.16 L/kg
same,clearance rate,[3]; estimated from rate of drug elimination,0.44 mL/min/kg
same,t1/2,[3]; serum,36 h
same,time to Cmax (Tmax),[3]; serum,24 h
same,"hepatic function tests (SGPT, ALP, SGOT, total protein, Albumin, Bilirubin)",Wistar rats [4]; [6],did not cause any adverse effect on liver function
same,"renal function (BUN, Creatinine, Phosphorous, Uric acid) vs control",Wistar rats [4]; [6],did not have any appreciable variation
same,ALP level vs control,"Wistar rats [4]; Wistar rats, 100 and 1000 mg/kg oral, higher than control",the increase was limited and was not significant
same,SGOT level vs control,"Wistar rats [4]; Wistar rats, maximal dose (2000 mg/kg) oral, within normal range, not significant",marginally higher
same,stability in PBS,[5],stable in PBS up to 6 h
same,visible toxicity,mice; highest dose 2000 mg/kg oral,did not cause any visible toxicity
same,LD50,mice; oral route,> 2000 mg/kg
same,platelet count,"mice; oral, even at the highest dose",did not affect the platelet count
same,interaction with BCL2,BCL2,specifically interacted with BCL2
same,genotoxicity (micronucleus formation in bone marrow cells),bone marrow cells,no DNA damage induced by Disarib
